Patent publication US20190381061A1, “LOCAL ANESTHESIA PAIN-RELIEVING TIME-DELAY AGENT” (priority 2013, published 2019)

Key:
patient = experiment: Local anesthesia for clinical surgical operations: composition combined with a local anesthetic and injected locally; format: in vivo, human
Protocol: The above components are injected into 4 ml of 0.375% bupivacaine, and a 0.9% saline solution is added so that the total volume became 8 ml, and then, the composition is subcutaneously injected into both eyebrow regions.
The above components were injected into 30 ml of 1% prilocain hydrochloride according to the ratio, and 0.9% […] was added so that the total volume became 60 ml, and then, the composition was subcutaneously, intramuscularly and subperiosteally injected into the operation site of a patient using a 3 cm needle, and as the result, it was concluded that onset time of anesthesia is shortened to 60 seconds from 5 minutes of the existing case wherein only lidocaine was injected, and the duration of anesthetic action is prolonged from the existing 2 hours to 40 days. […].
The above components were injected into 20 ml of 0.5% procaine, and a 0.9% saline solution was added so that the total volume became 40 ml, and then, the composition was sequentially injected subcutaneously, intramusculary and intraperitoneally along the appendectomy scar of the patient using a 3 cm needle, and as the result, it was concluded that onset time of anesthetic is 60 seconds, and the duration of pain relief continues for 40 days. […]. […]

peripheral nerve medulla = details: cited from earlier work

| SMILES | duration of anesthetic action / pain relief, existing (patient; existing case, without the composition of the example) | onset time of anesthesia, existing case (patient; only the local anesthetic injected, without the composition) | concentration at which it may directly injure peripheral nerve medulla to cause irreparable nerve injury (peripheral nerve medulla) |
| --- | --- | --- | --- |
| CCN(CC)CC(=O)Nc1c(C)cccc1C [lidocaine] | 2 h | 5 min |  |
| CN(C)c1ccc2nc3ccc(=[N+](C)C)cc-3sc2c1 [Methyleneblue] |  |  | > 0.03% |
